Experiment: xn = mol fraction of the nth substance listed
Settings: 101.3 kPa, Liquid; for viscosity: Capillary tube (Ostwald / Ubbelohde) method; for mass density: Pycnometric method; for thermal conductivity: Hot wire method

OCCCOCCCO [4-oxa-1,7-heptanediol] + O
Settings | mass density [kg/m3] | thermal conductivity [W/m/K] | viscosity [mPa·s]
293.4 K, x1 = 0.5 | 1034 | – | 59.9
293.9 K, x1 = 0.75 | 1028 | – | 88.5
295.05 K, x1 = 0.25 | 1040 | – | 22.3
297.8 K, x1 = 0.25 | – | 0.248 | –
297.9 K, x1 = 0.5 | – | 0.19 | –
298.4 K, x1 = 0.75 | – | 0.167 | –
313.05 K, x1 = 0.25 | 1026 | – | 9.14
313.05 K, x1 = 0.5 | 1019 | – | 18.6
313.05 K, x1 = 0.75 | 1013 | – | 25.8
323.9 K, x1 = 0.25 | – | 0.256 | –
324.8 K, x1 = 0.75 | – | 0.169 | –
324.9 K, x1 = 0.5 | – | 0.193 | –
333.1 K, x1 = 0.25 | 1010 | – | 4.3
333.1 K, x1 = 0.5 | 1003 | – | 7.68
333.1 K, x1 = 0.75 | 997 | – | 9.71
349.3 K, x1 = 0.5 | – | 0.195 | –
349.9 K, x1 = 0.25 | – | 0.26 | –
350.1 K, x1 = 0.75 | – | 0.167 | –
353.1 K, x1 = 0.25 | 992.8 | – | 2.42
353.1 K, x1 = 0.5 | 986 | – | 3.89
353.1 K, x1 = 0.75 | 980.5 | – | 4.71
368.25 K, x1 = 0.25 | 979.2 | – | 1.72
372.2 K, x1 = 0.5 | 969.5 | – | 2.33
372.2 K, x1 = 0.75 | 964.3 | – | 2.73
374 K, x1 = 0.25 | – | 0.264 | –
374.9 K, x1 = 0.5 | – | 0.196 | –
375.1 K, x1 = 0.75 | – | 0.169 | –
378.75 K, x1 = 0.25 | – | – | 1.41
382.5 K, x1 = 0.5 | 960.1 | – | 1.85
382.5 K, x1 = 0.75 | 955.2 | – | 2.14
392.3 K, x1 = 0.75 | 946.2 | – | 1.72
392.4 K, x1 = 0.5 | 951 | – | 1.53
394.25 K, x1 = 0.5 | 949.4 | – | –
395.75 K, x1 = 0.5 | – | – | 1.45
395.95 K, x1 = 0.25 | 953.1 | – | –
397.45 K, x1 = 0.25 | – | – | 0.983
398.6 K, x1 = 0.25 | – | 0.263 | –
398.9 K, x1 = 0.5 | – | 0.195 | –
399 K, x1 = 0.75 | – | 0.169 | –
402.3 K, x1 = 0.75 | 936.9 | – | 1.43
405.35 K, x1 = 0.75 | 934.5 | – | –
406.85 K, x1 = 0.75 | – | – | 1.33
407.85 K, x1 = 0.5 | 936.8 | – | –
408.35 K, x1 = 0.25 | 941.3 | – | –
410.85 K, x1 = 0.5 | – | – | 1.11
411.35 K, x1 = 0.25 | – | – | 0.803
418.35 K, x1 = 0.75 | 923 | – | –
421.35 K, x1 = 0.75 | – | – | 1.05
423.8 K, x1 = 0.25 | – | 0.264 | –
424.3 K, x1 = 0.75 | – | 0.167 | –
424.4 K, x1 = 0.5 | – | 0.193 | –
426.35 K, x1 = 0.5 | 918.8 | – | –
426.75 K, x1 = 0.25 | 922.7 | – | –
429.35 K, x1 = 0.5 | – | – | 0.829
429.75 K, x1 = 0.25 | – | – | 0.63
437.25 K, x1 = 0.75 | 904.2 | – | –
440.25 K, x1 = 0.75 | – | – | 0.795
444.65 K, x1 = 0.25 | 904.1 | – | –
445.25 K, x1 = 0.5 | 899.1 | – | –
447.65 K, x1 = 0.25 | – | – | 0.512
448.25 K, x1 = 0.5 | – | – | 0.64
448.8 K, x1 = 0.5 | – | 0.187 | –
448.9 K, x1 = 0.75 | – | 0.163 | –
455.15 K, x1 = 0.75 | 887.2 | – | –
458.15 K, x1 = 0.75 | – | – | 0.641

Source: the NIST ThermoML archive (doi:10.1021/je049960h)
